Reference: PubChem BioAssay (NCI)
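Five compound concentrations were applied to cells in 96-well plates for 48 hours; endpoints were derived by simple linear interpolation of the resulting dose-response curve. GI50 marks 50% less growth. TGI: concentration producing complete growth inhibition.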

What was measured:
Assay in all cases: NCI tumour cell line growth inhibition, 48 h
HT29 colon = tested on: HT29 colon
COLO 205 colon = tested on: COLO 205 colon
DU-145 prostate = tested on: DU-145 prostate
SN12C renal = tested on: SN12C renal
OVCAR-5 ovarian = tested on: OVCAR-5 ovarian
EKVX NSCLC = tested on: EKVX NSCLC
OVCAR-8 ovarian = tested on: OVCAR-8 ovarian
MDA-MB-435 = tested on: MDA-MB-435
MDA-MB-231 breast = tested on: MDA-MB-231 breast
HOP-62 NSCLC = tested on: HOP-62 NSCLC
OVCAR-3 ovarian = tested on: OVCAR-3 ovarian
NCI-H522 lung = tested on: NCI-H522 lung
A498 renal = tested on: A498 renal
SF-268 CNS = tested on: SF-268 CNS
HCT-116 colon = tested on: HCT-116 colon
SK-OV-3 ovarian = tested on: SK-OV-3 ovarian
NCI/ADR-RES ovarian = tested on: NCI/ADR-RES ovarian
CCRF-CEM leukemia = tested on: CCRF-CEM leukemia
U251 CNS = tested on: U251 CNS
NCI-H23 lung = tested on: NCI-H23 lung
SF-539 CNS = tested on: SF-539 CNS
HOP-92 NSCLC = tested on: HOP-92 NSCLC
HCT-15 colon = tested on: HCT-15 colon
IGROV1 ovarian = tested on: IGROV1 ovarian
KM12 colon = tested on: KM12 colon
RXF 393 renal = tested on: RXF 393 renal
HL-60(TB) leukemia = tested on: HL-60(TB) leukemia
RPMI-8226 leukemia = tested on: RPMI-8226 leukemia
SF-295 CNS = tested on: SF-295 CNS
SW-620 colon = tested on: SW-620 colon
M14 melanoma = tested on: M14 melanoma
BT-549 breast = tested on: BT-549 breast
NCI-H460 lung = tested on: NCI-H460 lung
PC-3 prostate = tested on: PC-3 prostate
SR leukemia = tested on: SR leukemia
UO-31 renal = tested on: UO-31 renal
SNB-19 CNS = tested on: SNB-19 CNS
HCC-2998 colon = tested on: HCC-2998 colon
A549 NSCLC = tested on: A549 NSCLC
ACHN renal = tested on: ACHN renal
MOLT-4 leukemia = tested on: MOLT-4 leukemia
LOX IMVI melanoma = tested on: LOX IMVI melanoma
SK-MEL-5 melanoma = tested on: SK-MEL-5 melanoma
TK-10 renal = tested on: TK-10 renal
T-47D breast = tested on: T-47D breast
NCI-H226 lung = tested on: NCI-H226 lung
786-0 renal = tested on: 786-0 renal
K-562 leukemia = tested on: K-562 leukemia
UACC-62 melanoma = tested on: UACC-62 melanoma
UACC-257 melanoma = tested on: UACC-257 melanoma
MALME-3M melanoma = tested on: MALME-3M melanoma

Nc1ccc(N=Nc2ccccc2)c(N)n1
GI50 (HT29 colon): 34.5 µM
TGI (HT29 colon): > 100 µM
GI50 (COLO 205 colon): 26.1 µM
TGI (COLO 205 colon): 72.8 µM
GI50 (DU-145 prostate): 25.2 µM
TGI (DU-145 prostate): 81 µM
GI50 (SN12C renal): 30.4 µM
TGI (SN12C renal): > 100 µM
GI50 (OVCAR-5 ovarian): 40.3 µM
TGI (OVCAR-5 ovarian): > 100 µM
GI50 (EKVX NSCLC): 4.08 µM
TGI (EKVX NSCLC): 33.4 µM
GI50 (OVCAR-8 ovarian): 37.5 µM
TGI (OVCAR-8 ovarian): > 100 µM
GI50 (MDA-MB-435): 22.4 µM
TGI (MDA-MB-435): 80.1 µM
GI50 (MDA-MB-231 breast): 18 µM
TGI (MDA-MB-231 breast): 73.7 µM
GI50 (HOP-62 NSCLC): 33.9 µM
TGI (HOP-62 NSCLC): > 100 µM
GI50 (OVCAR-3 ovarian): 20.2 µM
TGI (OVCAR-3 ovarian): 67.9 µM
GI50 (NCI-H522 lung): 22.9 µM
TGI (NCI-H522 lung): 86.2 µM
GI50 (A498 renal): 12.9 µM
TGI (A498 renal): 39.8 µM
GI50 (SF-268 CNS): 16.8 µM
TGI (SF-268 CNS): 72.9 µM
GI50 (HCT-116 colon): 23 µM
TGI (HCT-116 colon): 60.5 µM
GI50 (SK-OV-3 ovarian): 30.1 µM
TGI (SK-OV-3 ovarian): > 100 µM
GI50 (NCI/ADR-RES ovarian): 31 µM
TGI (NCI/ADR-RES ovarian): > 100 µM
GI50 (CCRF-CEM leukemia): 29.4 µM
TGI (CCRF-CEM leukemia): > 100 µM
GI50 (U251 CNS): 29.8 µM
TGI (U251 CNS): > 100 µM
GI50 (NCI-H23 lung): 31.9 µM
TGI (NCI-H23 lung): > 100 µM
GI50 (SF-539 CNS): 29.9 µM
TGI (SF-539 CNS): > 100 µM
GI50 (HOP-92 NSCLC): 14.8 µM
TGI (HOP-92 NSCLC): 65.9 µM
GI50 (HCT-15 colon): 35.8 µM
TGI (HCT-15 colon): > 100 µM
GI50 (IGROV1 ovarian): 23.7 µM
TGI (IGROV1 ovarian): 77.5 µM
GI50 (KM12 colon): 15.5 µM
TGI (KM12 colon): 56.6 µM
GI50 (RXF 393 renal): 20.3 µM
TGI (RXF 393 renal): 60.7 µM
GI50 (HL-60(TB) leukemia): 27.5 µM
TGI (HL-60(TB) leukemia): > 100 µM
GI50 (RPMI-8226 leukemia): 36.2 µM
TGI (RPMI-8226 leukemia): > 100 µM
GI50 (SF-295 CNS): 17 µM
TGI (SF-295 CNS): 50.9 µM
GI50 (SW-620 colon): 28.6 µM
TGI (SW-620 colon): > 100 µM
GI50 (M14 melanoma): 29.4 µM
TGI (M14 melanoma): 74.9 µM
GI50 (BT-549 breast): 16.6 µM
TGI (BT-549 breast): 46.1 µM
GI50 (NCI-H460 lung): 29.1 µM
TGI (NCI-H460 lung): 97.4 µM
GI50 (PC-3 prostate): 21.7 µM
TGI (PC-3 prostate): > 100 µM
GI50 (SR leukemia): 18.1 µM
TGI (SR leukemia): > 100 µM
GI50 (UO-31 renal): 13.7 µM
TGI (UO-31 renal): 43 µM
GI50 (SNB-19 CNS): 40.7 µM
TGI (SNB-19 CNS): > 100 µM
GI50 (HCC-2998 colon): 24.8 µM
TGI (HCC-2998 colon): 58.8 µM
GI50 (A549 NSCLC): 27.4 µM
TGI (A549 NSCLC): > 100 µM
GI50 (ACHN renal): 37.2 µM
TGI (ACHN renal): > 100 µM
GI50 (MOLT-4 leukemia): 35.4 µM
TGI (MOLT-4 leukemia): > 100 µM
GI50 (LOX IMVI melanoma): 29 µM
TGI (LOX IMVI melanoma): > 100 µM
GI50 (SK-MEL-5 melanoma): 26.3 µM
TGI (SK-MEL-5 melanoma): > 100 µM
GI50 (TK-10 renal): 41.2 µM
TGI (TK-10 renal): > 100 µM
GI50 (T-47D breast): 23.4 µM
TGI (T-47D breast): > 100 µM
GI50 (NCI-H226 lung): 62.6 µM
TGI (NCI-H226 lung): > 100 µM
GI50 (786-0 renal): 20.8 µM
TGI (786-0 renal): 44.4 µM
GI50 (K-562 leukemia): 42.7 µM
TGI (K-562 leukemia): > 100 µM
GI50 (UACC-62 melanoma): 32.6 µM
TGI (UACC-62 melanoma): > 100 µM
GI50 (UACC-257 melanoma): 38.6 µM
TGI (UACC-257 melanoma): > 100 µM
GI50 (MALME-3M melanoma): 48.5 µM
TGI (MALME-3M melanoma): > 100 µM
